According to PMC6568020, “Elucidating the Hot Spot Residues of Quorum Sensing Peptidic Autoinducer PapR by Multiple Amino Acid Replacements” (Frontiers in Microbiology, 2019):
Entries after “also recorded” stand apart in the source; their conditions may differ. Where a SMILES comes first, the peptide text is derived from it. [ ]: non-standard residue; d: D form.

How the values were obtained:
[1] = tested on: PlcR regulon (plcA promoter-lacZ fusion); test: Competition studies of PapR7-derived peptides with endogenous PapR, β-galactosidase (lacZ reporter) assay; type: cell-based, B. thuringiensis 407 Cry- plcA'Z (Bt A'Z); conditions: Bt A'Z; for reduction of plcA'Z activity: 2.5 μM peptide, added at late-exponential phase (OD600 1.8 ± 0.1), normalized to untreated cells, mean; for effect on plcA'Z activation at low cell density (in words): added at OD600 0.1 ± 0.03, quantified after 2.5 h; for class of inhibitory activity throughout the competition studies: plcA'lacZ, summary of the competition studies; for IC50: late-exponential phase (OD600 1.8 ± 0.1), competition with endogenous PapR, mean ± SEM, SEM, read-out: IC50, lacZ-based reporter assay
Experimental: Bacterial strains used in this study: B. thuringiensis 407 Cry ^- plcA′Z (Bt A’Z) and the PapR null-mutant 407 Cry ^- ΔpapR plcA’Z (Bt ΔpapR A’Z) strains, containing a transcriptional fusion between the promoter of plcA and the lacZ reporter gene (as described previously; [Gominet et al., 2001]; [Slamti and Lereclus, 2002]); B. cereus strain ATCC 14579 ([Ivanova et al., 2003]). Unless otherwise noted, cells were grown in modified LB medium (16 g/L tryptone, 8 g/L yeast extract, 5 g/L NaCl) at 37°C and stored at −80°C in LB containing 25% glycerol. Kanamycin (200 μg/mL) was used for the selection of B. thuringiensis.
Bt A’Z cells were grown overnight in LB medium. The cells were diluted 10^–3 in modified LB to a final volume of 1 L and incubated at 37°C with shaking (200 rpm) until the end of the lag or late-exponential of bacterial growth (OD600 0.1 ± 0.03; 1.8 ± 0.1, respectively). Different concentrations of synthetic peptides were added to 2 ml aliquots of culture and incubated for various times (1–24 h) before centrifugation (Eppendorf centrifuge R5810, 4000 rpm for 5 min) and quantification of β-galactosidase activity.
β-galactosidase activity was measured as described previously ([Yang et al., 2017]), with minor modifications. Briefly, 200 μL aliquots from 2 ml treated cultures were added in triplicate to a clear 96-well microtiter plate, and then OD600 was measured and β-galactosidase activity was assayed. The final results were reported as percentage of activation, which is the ratio between the Miller units obtained after addition of the PapR7 analogs. In Bt ΔpapR A’Z strain, the plcA promoter activity was very low and considered as a baseline. In Bt A’Z strain, the untreated bacteria were considered as 100% of activation and the results were normalized accordingly. Each assay was repeated at least three times.

[2] = tested on: B. cereus ATCC 14579; type: cell-based, Bacillus cereus; conditions: n = 9; for IC50: supernatant of B. cereus ATCC 14579 cultures treated at OD600 0.1 ± 0.03 for 2.5 h, 1% human red blood cells, 30 min, 37°C, absorbance at 420 nm, mean ± SEM, SEM, read-out: IC50, hemolytic assay
Experimental: Bt A’Z or B. cereus ATCC 14579 cells were grown overnight in LB medium. The cells were diluted 10^–3 in modified LB to a final volume of 1 liter and incubated at 37°C with shaking (200 rpm) until the end of the lag phase of bacterial growth (OD600 0.1 ± 0.03). Different concentrations of synthetic peptides were added to 2 ml aliquots of culture and incubated for 2.5 h before centrifugation (Eppendorf centrifuge R5810, 4000 rpm for 5 min), separation and filtration (0.2 μm filter) of the supernatants of the treated cultures. Analyses of hemolytic activity were conducted as previously described using human red blood cells ([Tal-Gan et al., 2013b]; [Lobel et al., 2015]). Bacterial supernatants were serially diluted in Tris-buffered saline (pH 7.2, 10 mM Tris–HCl, 155 mM NaCl) with 1% human red blood cells (hRBC) suspension and were incubated for 30 min at 37°C. Hemolytic activities were measured by monitoring the absorbance at 420 nm.

[3] = biological target: PlcR of B. cereus ATCC 14579 (B. cereus (endogenous in strain ATCC 14579))
[4] = biological target: PlcR of B. thuringiensis 407 Cry- (B. thuringiensis (endogenous in strain 407 Cry- plcA'Z))
[5] = biological target: PlcR of B. thuringiensis 407 Cry- (B. thuringiensis (endogenous in strain 407 Cry- plcA'Z)); remark: listed apart in the source
[6] = biological target: PlcR of B. cereus ATCC 14579 (B. cereus (endogenous in strain ATCC 14579)); remark: listed apart in the source
[7] = biological target: PlcR of B. thuringiensis 407 Cry- (B. thuringiensis (endogenous in strain 407 Cry- plcA'Z)); remark: listed apart in the source

ADLAFEdF [PapR7-P4A:dF7, second-generation PapR7-derived peptide ADLAFEdF]
reduction of plcA'Z activity ([1]; n = 9): approximately 40% | effect on plcA'Z activation at low cell density (in words) ([1]; 10 μM peptide, n = 9): drastic reduction in plcA’Z activity | class of inhibitory activity throughout the competition studies [1]: median to high inhibitory activities | reduction of hemolytic activity ([2]; 10 μM peptide, B. cereus ATCC 14579 treated at OD600 0.1 ± 0.03, human red blood cells, normalized to untreated): approximately 83%

PapR7-P4A (peptide)
IC50 of inhibition of the hemolytic activity (human red blood cells) of supernatants of treated B. cereus ATCC 14579 cultures; the pair that is blocked: native PapR with PlcR [3]: 4.39 µM

PapR7-P4A:dE6:dF7 (peptide)
reduction of plcA'Z (β-galactosidase) activity in Bt A'Z cells, 10 μM peptide added at end of lag phase (OD600 0.1); the pair that is blocked: endogenous PapR with PlcR [4]: 75% | IC50 of inhibition of the hemolytic activity (human red blood cells) of supernatants of treated B. cereus ATCC 14579 cultures; the pair that is blocked: native PapR with PlcR [3]: 2.14 µM | reduction of plcA'Z (β-galactosidase) activity in Bt A'Z cells, 2.5 μM peptide added at late-exponential phase; the pair that is blocked: endogenous PapR with PlcR [5]: 40%

PapR7-E6A:dF7 (peptide)
inhibition of the hemolytic activity (human red blood cells) of supernatants of B. cereus ATCC 14579 cultures treated with 10 μM peptide; the pair that is blocked: native PapR with PlcR [6]: 83% | reduction of plcA'Z (β-galactosidase) activity in Bt A'Z cells, 2.5 μM peptide added at late-exponential phase; the pair that is blocked: endogenous PapR with PlcR [5]: 40%

CC(C)C[C@H](NC(=O)[C@H](CC(=O)O)NC(=O)[C@H](C)N)C(=O)N1CCC[C@H]1C(=O)N[C@@H](Cc1ccccc1)C(=O)N[C@@H](CCC(=O)O)C(=O)N[C@H](Cc1ccccc1)C(N)=O [PapR7-dF7, reference compound] (H-ADLPFE[dF]-NH2; N-terminus assumed)
reduction of plcA'Z activity ([1]; n = 9): 63% | IC50 [1]: 1.22 ± 0.072 µM | IC50 [2]: 3.04 ± 0.206 µM

CC(C)C[C@H](NC(=O)[C@H](CC(=O)O)NC(=O)[C@H](C)N)C(=O)N1CCC[C@H]1C(=O)N[C@@H](Cc1ccccc1)C(=O)N[C@H](CCC(=O)O)C(=O)N[C@H](Cc1ccccc1)C(N)=O [PapR7-dE6:dF7] (H-ADLPF[dE][dF]-NH2; N-terminus assumed)
reduction of plcA'Z activity ([1]; n = 9): 71% | effect on plcA'Z activation / PlcR regulon activity after 24 h (in words) ([1]; 10 μM peptide, added at OD600 0.1 ± 0.03, harvested after 24 h, n = 9): blocked plcA’Z activation; also recorded: blocked the PlcR regulon activity | effect on plcA'Z activation at low cell density (in words) ([1]; 10 μM peptide, n = 9): blocked plcA’Z activation | IC50 [1]: 1.68 ± 0.17 µM | class of inhibitory activity throughout the competition studies [1]: very potent inhibitors | IC50 [2]: 1.38 ± 0.117 µM

PapR7-P4A:dE6 (peptide)
reduction of plcA'Z (β-galactosidase) activity in Bt A'Z cells, 2.5 μM peptide added at late-exponential phase; the pair that is blocked: endogenous PapR with PlcR [5]: 40%

PapR7-P4A:dE6:F7A (peptide)
reduction of plcA'Z (β-galactosidase) activity in Bt A'Z cells, 10 μM peptide added at end of lag phase (OD600 0.1); the pair that is blocked: endogenous PapR with PlcR [4]: 75% | IC50 of inhibition of the hemolytic activity (human red blood cells) of supernatants of treated B. cereus ATCC 14579 cultures; the pair that is blocked: native PapR with PlcR [3]: 1.99 µM | reduction of plcA'Z (β-galactosidase) activity in Bt A'Z cells, 2.5 μM peptide added at late-exponential phase; the pair that is blocked: endogenous PapR with PlcR [5]: 40%

PapR7-dF7 (peptide)
IC50 of inhibition of plcA'Z (β-galactosidase) activity in Bt A'Z cells, lacZ-based reporter assay; the pair that is blocked: endogenous PapR with PlcR [7]: 1.22 µM | IC50 of inhibition of the hemolytic activity (human red blood cells) of supernatants of treated B. cereus ATCC 14579 cultures; the pair that is blocked: native PapR with PlcR [3]: 3.04 µM | reduction of plcA'Z (β-galactosidase) activity in Bt A'Z cells, 2.5 μM peptide added at late-exponential phase; the pair that is blocked: endogenous PapR with PlcR [5]: 63%
